How the values were obtained:
[1] = tested on: normal NK cells expanded with K562-aAPC; assay: percent inhibition of viability; higher = more inhibition; settings: 72 h, IL-2 2.5 ng/mL
Description: (§1)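 Drug sensitivity and resistance testing on K562-aAPC-expanded normal NK cells: 5 concentrations (10-fold steps over a 10,000-fold range), 72 h at 37 °C, viability by CellTiter-Glo normalised to DMSO and benzethonium chloride controls; DSS from the fitted curve.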

DERL-7 (IL-2 2.5 ng/mL) [2] = assay: as above; settings: 72 h
IMC-1 (IL-2 20 ng/mL) [3] = assay: as above; settings: 72 h
KAI3 (IL-2 2.5 ng/mL) [4] = assay: as above; settings: 72 h
KHYG-1 (IL-2 2.5 ng/mL) [5] = assay: as above; settings: 72 h
NK-92 (IL-2 2.5 ng/mL) [6] = assay: as above; settings: 72 h
NK-YS (IL-2 2.5 ng/mL) [7] = assay: as above; settings: 72 h
NKL (IL-2 2.5 ng/mL) [8] = assay: as above; settings: 72 h
SNK-6 (IL-2 2.5 ng/mL) [9] = assay: as above; settings: 72 h
YT (IL-2 2.5 ng/mL) [10] = assay: as above; settings: 72 h
[11] = tested on: normal primary NK cells, pool 1 (3 donors) (IL-2 2.5 ng/mL); assay: as above; settings: 72 h
[12] = tested on: normal primary NK cells, pool 1 (3 donors), resting (IL-2 0 ng/mL); assay: as above; settings: 72 h
[13] = tested on: normal primary NK cells, pool 2 (3 donors) (IL-2 2.5 ng/mL); assay: as above; settings: 72 h
[14] = tested on: normal primary NK cells, pool 3 (3 donors) (IL-2 2.5 ng/mL); assay: as above; settings: 72 h
[15] = tested on: normal NK cells expanded with K562-aAPC; assay: drug sensitivity score (DSS) (DSS units); higher = more sensitive; extreme values may be limits of the assay; settings: 72 h; IL-2 2.5 ng/mL
Description: as §1

DERL-7 (IL-2 2.5 ng/mL) [16] = assay: as above; settings: 72 h
IMC-1 (IL-2 20 ng/mL) [17] = assay: as above; settings: 72 h
KAI3 (IL-2 2.5 ng/mL) [18] = assay: as above; settings: 72 h
KHYG-1 (IL-2 2.5 ng/mL) [19] = assay: as above; settings: 72 h
NK-92 (IL-2 2.5 ng/mL) [20] = assay: as above; settings: 72 h
NK-YS (IL-2 2.5 ng/mL) [21] = assay: as above; settings: 72 h
NKL (IL-2 2.5 ng/mL) [22] = assay: as above; settings: 72 h
SNK-6 (IL-2 2.5 ng/mL) [23] = assay: as above; settings: 72 h
YT (IL-2 2.5 ng/mL) [24] = assay: as above; settings: 72 h
[25] = tested on: normal primary NK cells, pool 1 (3 donors) (IL-2 2.5 ng/mL); assay: as above; settings: 72 h
[26] = tested on: normal primary NK cells, pool 1 (3 donors), resting (IL-2 0 ng/mL); assay: as above; settings: 72 h
[27] = tested on: normal primary NK cells, pool 2 (3 donors) (IL-2 2.5 ng/mL); assay: as above; settings: 72 h
[28] = tested on: normal primary NK cells, pool 3 (3 donors) (IL-2 2.5 ng/mL); assay: as above; settings: 72 h

NC(=O)c1cccc(-c2cccc(OC(=O)NC3CCCCC3)c2)c1 [URB597] (max concentration tested 1000 nM)
percent inhibition of viability [%]
Settings	0.1 nM	1 nM	10 nM	100 nM	1000 nM
DERL-7 (IL-2 2.5 ng/mL) [2]	11	4.35	12	5.02	5.08
IMC-1 (IL-2 20 ng/mL) [3]	-4	4.78	2.31	4	3.07
KAI3 (IL-2 2.5 ng/mL) [4]	-3.62	-6.19	-2.65	-2.84	16.1
KHYG-1 (IL-2 2.5 ng/mL) [5]	-1.98	3.31	2.01	2.83	7.66
NK-92 (IL-2 2.5 ng/mL) [6]	1.97	3.05	12.2	-3.48	7.28
NK-YS (IL-2 2.5 ng/mL) [7]	-1.3	0.73	8.14	5.17	8.51
NKL (IL-2 2.5 ng/mL) [8]	3.64	0.02	13.3	15.1	14.2
SNK-6 (IL-2 2.5 ng/mL) [9]	-7.3	9.09	10.3	2.22	2.83
YT (IL-2 2.5 ng/mL) [10]	1.76	2.28	2.53	3.49	9.4
[1]	-5.77	-3.62	-1	7.42	7.56
[11]	5.21	-3.54	1.12	-15.5	-7.59
[12]	-1.65	-9.18	1.01	-15.8	-6.01
[13]	-11.5	-5.88	15.1	-7.18	8.87
[14]	-10.1	-1.33	5.88	-9.83	6.07

Settings	drug sensitivity score
DERL-7 (IL-2 2.5 ng/mL) [16]	0
IMC-1 (IL-2 20 ng/mL) [17]	0
KAI3 (IL-2 2.5 ng/mL) [18]	0.21
KHYG-1 (IL-2 2.5 ng/mL) [19]	0
NK-92 (IL-2 2.5 ng/mL) [20]	0
NK-YS (IL-2 2.5 ng/mL) [21]	0
NKL (IL-2 2.5 ng/mL) [22]	2.41
SNK-6 (IL-2 2.5 ng/mL) [23]	0
YT (IL-2 2.5 ng/mL) [24]	0
[15]	0
[25]	0
[26]	0
[27]	0
[28]	0

Clc1ccc(Nc2nnc(Cc3ccncc3)c3ccccc23)cc1 [Vatalanib] (max concentration tested 10000 nM)
percent inhibition of viability [%]
Settings	1 nM	10 nM	100 nM	1000 nM	10000 nM
DERL-7 (IL-2 2.5 ng/mL) [2]	1.72	5.91	0.68	4.05	0.46
IMC-1 (IL-2 20 ng/mL) [3]	-2.63	0.44	3.66	5.09	30.7
KAI3 (IL-2 2.5 ng/mL) [4]	0.27	-2.4	-1.03	-4.6	20.6
KHYG-1 (IL-2 2.5 ng/mL) [5]	0.78	0.74	8.34	3.67	19.5
NK-92 (IL-2 2.5 ng/mL) [6]	5.05	7.47	10.4	6.67	30.2
NK-YS (IL-2 2.5 ng/mL) [7]	0.51	-0.15	5.11	1.16	15.7
NKL (IL-2 2.5 ng/mL) [8]	-15.8	-12.6	-1.27	4.13	31.1
SNK-6 (IL-2 2.5 ng/mL) [9]	9.43	19.1	24.5	8.51	0.02
YT (IL-2 2.5 ng/mL) [10]	-1.15	0.78	6.42	-0.36	12.6
[1]	-5.26	1.3	-1.96	9.03	9.76
[11]	-1.16	-14.2	-9.3	-17.4	-10.3
[12]	8.82	-6.33	-5.39	-29.3	12.2
[13]	-10.1	-2.12	-4.7	-5.37	2.5
[14]	-15.5	-8.9	-5.65	-2.32	-4.9

Settings	drug sensitivity score
DERL-7 (IL-2 2.5 ng/mL) [16]	0
IMC-1 (IL-2 20 ng/mL) [17]	2.18
KAI3 (IL-2 2.5 ng/mL) [18]	0.45
KHYG-1 (IL-2 2.5 ng/mL) [19]	0.55
NK-92 (IL-2 2.5 ng/mL) [20]	2.23
NK-YS (IL-2 2.5 ng/mL) [21]	0.39
NKL (IL-2 2.5 ng/mL) [22]	2.05
SNK-6 (IL-2 2.5 ng/mL) [23]	0
YT (IL-2 2.5 ng/mL) [24]	0.07
[15]	0
[25]	0
[26]	0.01
[27]	0
[28]	0
